ChEMBL document CHEMBL1201862, “PubChem BioAssay data set” (2004)
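Dose response: 5 concentrations. Exposure: 48 h. Format: 96-well plates. Endpoint: linear interpolation; highest concentration if not reached. Abbreviation: GI50, concentration required for 50% inhibition of growth.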 Active and inactive are the calls of the source. Rule as the data show it: active = GI50 up to about 1.1 µM and inactive = higher.

Legend:
Experiment in all cases: NCI tumour cell line growth inhibition, 48 h
[1] = tested on: DU-145
[2] = tested on: MDA-MB-435
[3] = tested on: 786-0
[4] = tested on: NCI/ADR-RES
[5] = tested on: A498
[6] = tested on: EKVX
[7] = tested on: UO-31
[8] = tested on: BT-549
[9] = tested on: UACC-62
[10] = tested on: HCT-116
[11] = tested on: HOP-62
[12] = tested on: NCI-H522
[13] = tested on: SF-268
[14] = tested on: TK-10
[15] = tested on: Malme-3M
[16] = tested on: SK-MEL-5
[17] = tested on: KM12
[18] = tested on: T47D
[19] = tested on: RPMI-8226

Row | SMILES | GI50 [1] | GI50 [2] | GI50 [3] | GI50 [4] | GI50 [5] | GI50 [6] | GI50 [7] | GI50 [8] | GI50 [9] | GI50 [10] | GI50 [11] | GI50 [12] | GI50 [13] | GI50 [14] | GI50 [15] | GI50 [16] | GI50 [17] | GI50 [18] | GI50 [19]
1 | COc1cc2ccc1OCc1cccc(n1)COc1ccc(cc1OC)/C=N\CCNCCNCC/N=C\2 | > 100 µM (inactive) | > 100 µM (inactive) | > 100 µM (inactive) | > 100 µM (inactive) | > 100 µM (inactive) | > 100 µM (inactive) | > 100 µM (inactive) | > 100 µM (inactive) | > 100 µM (inactive) | > 100 µM (inactive) | > 100 µM (inactive) | > 100 µM (inactive) | > 100 µM (inactive) | > 100 µM (inactive) | > 100 µM (inactive) | > 100 µM (inactive) | > 100 µM (inactive) | > 100 µM (inactive) | 
2 | CN1C2CCC1CN(CCOC(c1ccc(F)cc1)c1ccc(F)cc1)C2 | 57.5 µM (inactive) | 23.4 µM (inactive) | 19.6 µM (inactive) | 35.4 µM (inactive) | 24.8 µM (inactive) | 23.8 µM (inactive) | 33.2 µM (inactive) | 43.4 µM (inactive) |  | 17.8 µM (inactive) | 21.4 µM (inactive) | 43.6 µM (inactive) | 46.7 µM (inactive) | > 100 µM (inactive) | 17.9 µM (inactive) | 14.4 µM (inactive) | 21.8 µM (inactive) | 24.3 µM (inactive) | 23.9 µM (inactive)
3 | N#Cc1nc(-c2cccs2)oc1N | > 100 µM (inactive) | > 100 µM (inactive) | > 100 µM (inactive) | > 100 µM (inactive) | > 100 µM (inactive) | 75 µM (inactive) | 62.4 µM (inactive) | > 100 µM (inactive) | > 100 µM (inactive) | > 100 µM (inactive) | > 100 µM (inactive) | 18.5 µM (inactive) | > 100 µM (inactive) | > 100 µM (inactive) | > 100 µM (inactive) | > 100 µM (inactive) | > 100 µM (inactive) | > 100 µM (inactive) | > 100 µM (inactive)
4 | C[C@]12CC[C@H]3[C@@H](CC[C@]4(O)C[C@@H](O)CC[C@]34CO)[C@@]1(O)CC[C@@H]2C1=CC(=O)OC1 [STROPHANTHIDOL] | 1.36 µM (inactive) | 2.57 µM (inactive) | 1.42 µM (inactive) | 1.51 µM (inactive) | 1.61 µM (inactive) | 1.39 µM (inactive) | 1.9 µM (inactive) | 1.51 µM (inactive) | 3.52 µM (inactive) | 0.553 µM (active) | 1.36 µM (inactive) | 0.447 µM (active) | 0.982 µM (active) | 1.52 µM (inactive) | 2.21 µM (inactive) | 0.979 µM (active) | 3.66 µM (inactive) | 3.3 µM (inactive) | 1.95 µM (inactive)
5 | C#CC(O)(c1nc2ccccc2s1)c1nc2ccccc2s1 | 26.4 µM (inactive) | 23.1 µM (inactive) | 18.5 µM (inactive) | 26.2 µM (inactive) | 16.9 µM (inactive) | 19.3 µM (inactive) | 15 µM (inactive) | 16.6 µM (inactive) | 12.3 µM (inactive) | 16.3 µM (inactive) | 26.2 µM (inactive) | 17.6 µM (inactive) | 28.5 µM (inactive) | 36.6 µM (inactive) | 27 µM (inactive) | 15.6 µM (inactive) | 29.4 µM (inactive) | 13.8 µM (inactive) | 21 µM (inactive)
6 | O=C(CCl)Nc1ccc(-c2nc3ccccc3s2)cc1 | 10.4 µM (inactive) | 4.03 µM (inactive) | 2 µM (inactive) | 4.59 µM (inactive) | 6.82 µM (inactive) | 6.97 µM (inactive) | 13 µM (inactive) | 1.6 µM (inactive) | 2.22 µM (inactive) | 2.16 µM (inactive) | 3.72 µM (inactive) | 1.77 µM (inactive) | 2.81 µM (inactive) | 15.7 µM (inactive) | 2.07 µM (inactive) | 1.6 µM (inactive) | 3.3 µM (inactive) | 1.53 µM (inactive) | 2.26 µM (inactive)
7 | CCCCn1c(C)c(C(=O)OCC)c2cc(OCc3ccc(C(=O)Nn4c(C)ccc4C)cc3)c(Br)cc21 | > 100 µM (inactive) | > 100 µM (inactive) | > 100 µM (inactive) | > 100 µM (inactive) | > 100 µM (inactive) | > 100 µM (inactive) |  | > 100 µM (inactive) | > 100 µM (inactive) | > 100 µM (inactive) | > 100 µM (inactive) | > 100 µM (inactive) | > 100 µM (inactive) | > 100 µM (inactive) | > 100 µM (inactive) | > 100 µM (inactive) | > 100 µM (inactive) | > 100 µM (inactive) | > 100 µM (inactive)
8 | O=C(O)CCCCn1ccc(=O)[nH]c1=O | > 100 µM (inactive) | > 100 µM (inactive) | > 100 µM (inactive) | > 100 µM (inactive) | > 100 µM (inactive) | > 100 µM (inactive) | > 100 µM (inactive) | > 100 µM (inactive) | > 100 µM (inactive) | > 100 µM (inactive) | > 100 µM (inactive) | > 100 µM (inactive) | > 100 µM (inactive) | > 100 µM (inactive) | > 100 µM (inactive) | > 100 µM (inactive) | > 100 µM (inactive) | > 100 µM (inactive) | > 100 µM (inactive)
9 | CCOC(=O)c1cc2c(OC)cc(OC)cc2oc1=O | > 100 µM (inactive) | > 100 µM (inactive) | 52.5 µM (inactive) | > 100 µM (inactive) | > 100 µM (inactive) | > 100 µM (inactive) |  | 76 µM (inactive) | > 100 µM (inactive) | > 100 µM (inactive) | 65.3 µM (inactive) | 52.1 µM (inactive) | 42.3 µM (inactive) | > 100 µM (inactive) | > 100 µM (inactive) | > 100 µM (inactive) |  | > 100 µM (inactive) | > 100 µM (inactive)
10 | CC[C@@H]1CN2CCC1C[C@@H]2C(O)c1ccnc2ccc(OCCN3CCN(CCOc4ccc5nccc(C(O)[C@@H]6C[C@@H]7CCN6C[C@@H]7CC)c5c4)CC3)cc12 (some centres undefined) | 17.5 µM (inactive) | 13.8 µM (inactive) | 13.4 µM (inactive) | > 100 µM (inactive) | 20.2 µM (inactive) | 17.1 µM (inactive) |  | 19.1 µM (inactive) | 16.1 µM (inactive) | 14.2 µM (inactive) | 18.5 µM (inactive) | 12 µM (inactive) | 18.4 µM (inactive) | 14.4 µM (inactive) | 24.8 µM (inactive) | 15 µM (inactive) | 16.1 µM (inactive) | 19.7 µM (inactive) | 2.59 µM (inactive)
11 | CCC(=O)Nc1ccc(/N=C/c2cccc(Oc3ccccc3)c2)cc1 | 46.2 µM (inactive) | 47.3 µM (inactive) | 42.4 µM (inactive) | 42.3 µM (inactive) | > 100 µM (inactive) | 65.5 µM (inactive) | 70.5 µM (inactive) | > 100 µM (inactive) | 95.7 µM (inactive) | 39.8 µM (inactive) | 37.2 µM (inactive) | > 100 µM (inactive) | 42.1 µM (inactive) |  | > 100 µM (inactive) | 33 µM (inactive) | > 100 µM (inactive) | 91 µM (inactive) | 21.8 µM (inactive)
12 | CC(=O)O[C@H]1CC[C@@]2(C)C(=CC[C@@H]3[C@@H]2CC[C@]2(C)c4c(cc(C#N)c(=N)n4C(C)=O)C[C@@H]32)C1 | 27.1 µM (inactive) | 19.6 µM (inactive) | 20.5 µM (inactive) | 17.2 µM (inactive) | 30.5 µM (inactive) | 15.9 µM (inactive) | 22 µM (inactive) | 15.4 µM (inactive) | 15.7 µM (inactive) | 14.8 µM (inactive) | 24.2 µM (inactive) | 17.9 µM (inactive) | 27.9 µM (inactive) | 25.4 µM (inactive) | 17.2 µM (inactive) | 15.5 µM (inactive) | 17.9 µM (inactive) | 17.6 µM (inactive) | 
13 | C1=C2C3=[N+](CCCCC3)CC2Cc2ccsc21 (centres undefined) | > 100 µM (inactive) | 60.3 µM (inactive) | > 100 µM (inactive) | > 100 µM (inactive) | 39.8 µM (inactive) | 53.5 µM (inactive) | > 100 µM (inactive) | 51.2 µM (inactive) | > 100 µM (inactive) | > 100 µM (inactive) | > 100 µM (inactive) | 39.7 µM (inactive) | 76.2 µM (inactive) | 59.8 µM (inactive) | 39.9 µM (inactive) | 53 µM (inactive) | 30.4 µM (inactive) | 63.5 µM (inactive) | 
14 | NC(CC1=CS(=O)(=O)c2ccc(Cl)cc21)C(=O)O (centres undefined) | > 100 µM (inactive) | > 100 µM (inactive) | > 100 µM (inactive) | > 100 µM (inactive) | > 100 µM (inactive) | > 100 µM (inactive) |  | > 100 µM (inactive) | > 100 µM (inactive) | > 100 µM (inactive) | > 100 µM (inactive) | > 100 µM (inactive) | > 100 µM (inactive) | > 100 µM (inactive) | 76.7 µM (inactive) | > 100 µM (inactive) | > 100 µM (inactive) | > 100 µM (inactive) | > 100 µM (inactive)
15 | COc1ccc(N2C(=O)CC(Cl)C2=O)cc1 (centres undefined) | 94.6 µM (inactive) | > 100 µM (inactive) | 17.7 µM (inactive) | 32.4 µM (inactive) | > 100 µM (inactive) | > 100 µM (inactive) | 18.7 µM (inactive) | > 100 µM (inactive) | 20.2 µM (inactive) | 18.2 µM (inactive) | > 100 µM (inactive) | 17.5 µM (inactive) | > 100 µM (inactive) | 18.8 µM (inactive) | 17.5 µM (inactive) | > 100 µM (inactive) |  | 18.9 µM (inactive) | 13.5 µM (inactive)
